Test results: the Kinase Knowledgebase extract (Sharma et al. 2016)

Assays:
[1] = molecular target: EGFR (human) (UniProt P00533)
[2] = molecular target: EGFR (Human), P00533 [T790M/L858R]
[3] = molecular target: EGFR (Human), P00533 [T790M/L858R]; conditions: baf3
[4] = molecular target: EGFR (human), P00533 [L858R]
[5] = molecular target: EGFR (Human), P00533 [Assessment of EGFR-Del T790M Dependent Cell Proliferation in BaF3 Cells]
Chain of EGFR (Human), P00533 [Assessment of EGFR-Del T790M Dependent Cell Proliferation in BaF3 Cells] (P00533 whole entry, looked up, stated change not applied): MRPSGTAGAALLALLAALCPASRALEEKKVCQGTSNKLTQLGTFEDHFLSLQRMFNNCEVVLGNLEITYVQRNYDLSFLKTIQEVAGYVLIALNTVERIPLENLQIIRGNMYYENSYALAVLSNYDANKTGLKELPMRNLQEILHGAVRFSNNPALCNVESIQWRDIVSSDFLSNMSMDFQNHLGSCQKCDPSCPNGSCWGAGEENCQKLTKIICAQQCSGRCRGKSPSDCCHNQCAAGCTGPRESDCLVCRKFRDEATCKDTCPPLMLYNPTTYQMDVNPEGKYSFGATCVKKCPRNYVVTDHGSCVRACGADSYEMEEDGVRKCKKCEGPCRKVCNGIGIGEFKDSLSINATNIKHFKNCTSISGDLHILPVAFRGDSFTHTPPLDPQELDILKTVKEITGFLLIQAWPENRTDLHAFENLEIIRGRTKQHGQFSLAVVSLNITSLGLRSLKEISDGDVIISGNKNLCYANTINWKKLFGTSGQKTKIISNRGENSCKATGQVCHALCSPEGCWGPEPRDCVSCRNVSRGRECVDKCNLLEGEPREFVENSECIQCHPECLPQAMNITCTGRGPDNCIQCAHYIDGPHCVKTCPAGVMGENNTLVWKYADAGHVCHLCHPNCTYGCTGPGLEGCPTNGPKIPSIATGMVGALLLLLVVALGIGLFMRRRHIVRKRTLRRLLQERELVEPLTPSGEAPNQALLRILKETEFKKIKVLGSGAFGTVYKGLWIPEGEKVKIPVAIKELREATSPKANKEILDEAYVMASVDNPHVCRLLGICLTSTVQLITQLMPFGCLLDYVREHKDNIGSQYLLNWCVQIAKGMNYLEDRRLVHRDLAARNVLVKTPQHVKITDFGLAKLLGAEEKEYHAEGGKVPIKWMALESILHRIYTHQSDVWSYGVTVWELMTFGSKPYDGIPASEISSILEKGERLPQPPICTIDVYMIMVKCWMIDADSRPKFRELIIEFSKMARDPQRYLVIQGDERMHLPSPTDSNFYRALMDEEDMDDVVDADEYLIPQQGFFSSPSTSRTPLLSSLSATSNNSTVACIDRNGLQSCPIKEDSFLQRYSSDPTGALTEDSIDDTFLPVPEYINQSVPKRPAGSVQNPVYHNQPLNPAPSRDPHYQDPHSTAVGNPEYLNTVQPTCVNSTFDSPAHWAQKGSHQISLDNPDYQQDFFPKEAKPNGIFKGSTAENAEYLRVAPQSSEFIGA

Chain of EGFR (Human), P00533 [T790M/L858R] (P00533 whole entry T790M/L858R, looked up): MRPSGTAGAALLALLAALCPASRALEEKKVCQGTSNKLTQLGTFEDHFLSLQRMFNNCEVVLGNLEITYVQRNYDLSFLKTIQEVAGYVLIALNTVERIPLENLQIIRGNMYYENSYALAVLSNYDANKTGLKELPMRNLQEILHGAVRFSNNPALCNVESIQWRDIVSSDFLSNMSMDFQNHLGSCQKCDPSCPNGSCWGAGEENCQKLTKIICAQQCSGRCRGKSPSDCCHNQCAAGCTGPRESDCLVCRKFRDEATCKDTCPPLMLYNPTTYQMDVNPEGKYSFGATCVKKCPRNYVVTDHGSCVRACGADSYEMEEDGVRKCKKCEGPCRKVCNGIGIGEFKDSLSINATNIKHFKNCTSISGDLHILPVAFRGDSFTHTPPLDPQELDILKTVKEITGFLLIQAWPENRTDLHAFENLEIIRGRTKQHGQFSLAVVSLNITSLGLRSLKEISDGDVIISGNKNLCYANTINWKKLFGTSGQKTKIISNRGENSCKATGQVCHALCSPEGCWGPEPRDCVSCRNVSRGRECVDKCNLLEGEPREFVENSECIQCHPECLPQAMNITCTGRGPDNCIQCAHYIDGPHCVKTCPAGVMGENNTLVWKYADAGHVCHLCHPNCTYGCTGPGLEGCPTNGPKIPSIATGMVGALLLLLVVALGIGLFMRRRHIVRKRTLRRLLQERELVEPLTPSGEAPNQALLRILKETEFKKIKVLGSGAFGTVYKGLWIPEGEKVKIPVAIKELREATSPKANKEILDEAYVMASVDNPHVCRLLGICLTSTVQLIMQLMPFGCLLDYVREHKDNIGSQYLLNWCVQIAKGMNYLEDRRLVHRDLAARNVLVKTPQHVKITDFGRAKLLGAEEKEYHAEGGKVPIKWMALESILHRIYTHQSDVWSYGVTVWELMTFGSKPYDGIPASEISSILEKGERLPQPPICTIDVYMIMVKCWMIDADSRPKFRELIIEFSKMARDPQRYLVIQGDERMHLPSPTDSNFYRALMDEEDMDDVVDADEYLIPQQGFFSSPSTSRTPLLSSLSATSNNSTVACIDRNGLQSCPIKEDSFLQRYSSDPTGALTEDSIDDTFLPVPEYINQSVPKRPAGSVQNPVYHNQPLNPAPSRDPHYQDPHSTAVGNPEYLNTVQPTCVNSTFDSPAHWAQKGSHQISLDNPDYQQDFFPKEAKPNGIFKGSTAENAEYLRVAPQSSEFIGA
Chain of EGFR (human) (P00533 whole entry, looked up): as the sequence (P00533 whole entry, looked up, stated change not applied) above
Chain of EGFR (human), P00533 [L858R] (P00533 whole entry L858R, looked up): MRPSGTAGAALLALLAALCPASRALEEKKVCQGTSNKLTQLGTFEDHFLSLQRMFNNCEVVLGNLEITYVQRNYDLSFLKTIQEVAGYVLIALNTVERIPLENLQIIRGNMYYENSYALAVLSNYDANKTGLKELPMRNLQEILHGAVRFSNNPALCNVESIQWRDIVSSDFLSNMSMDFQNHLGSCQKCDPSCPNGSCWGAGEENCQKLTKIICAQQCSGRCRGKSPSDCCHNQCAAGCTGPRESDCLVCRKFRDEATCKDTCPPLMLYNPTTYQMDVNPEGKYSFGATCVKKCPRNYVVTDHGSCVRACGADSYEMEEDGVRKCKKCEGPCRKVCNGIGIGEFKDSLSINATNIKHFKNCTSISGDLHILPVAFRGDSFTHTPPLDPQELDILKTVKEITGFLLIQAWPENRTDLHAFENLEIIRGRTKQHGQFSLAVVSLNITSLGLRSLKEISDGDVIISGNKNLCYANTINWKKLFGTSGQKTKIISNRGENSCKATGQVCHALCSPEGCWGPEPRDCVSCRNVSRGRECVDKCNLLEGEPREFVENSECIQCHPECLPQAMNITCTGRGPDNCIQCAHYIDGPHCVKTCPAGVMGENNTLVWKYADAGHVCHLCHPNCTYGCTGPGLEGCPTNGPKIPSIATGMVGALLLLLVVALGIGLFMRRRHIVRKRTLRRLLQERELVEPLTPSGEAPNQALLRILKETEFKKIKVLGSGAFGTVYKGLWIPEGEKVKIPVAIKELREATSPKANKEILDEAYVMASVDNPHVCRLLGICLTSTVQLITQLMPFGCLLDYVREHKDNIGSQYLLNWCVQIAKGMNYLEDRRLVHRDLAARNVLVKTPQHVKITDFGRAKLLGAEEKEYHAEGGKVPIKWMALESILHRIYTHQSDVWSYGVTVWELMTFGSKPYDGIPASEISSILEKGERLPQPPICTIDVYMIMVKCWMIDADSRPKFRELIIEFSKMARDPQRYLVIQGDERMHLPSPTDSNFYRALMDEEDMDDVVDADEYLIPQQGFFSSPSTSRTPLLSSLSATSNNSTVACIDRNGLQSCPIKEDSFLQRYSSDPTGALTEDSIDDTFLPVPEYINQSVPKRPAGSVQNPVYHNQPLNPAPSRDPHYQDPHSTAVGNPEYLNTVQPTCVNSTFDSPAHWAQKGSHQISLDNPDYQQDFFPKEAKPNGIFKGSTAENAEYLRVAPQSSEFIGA

| Structure (SMILES) | IC50 [1] | IC50 [2] | IC50 [3] | IC50 [4] | IC50 [5] |
| --- | --- | --- | --- | --- | --- |
| C=CC(=O)Nc1cc(Nc2ncc(Cl)c(Nc3ccccc3P(C)(C)=O)n2)c(OC)cc1CN1CCN(C)CC1 | < 50 nM | < 50 nM | 50 to 100 nM | < 50 nM | < 50 nM |
| C=CC(=O)Nc1cc(Nc2ncc(Cl)c(Nc3ccccc3P(C)(C)=O)n2)c(OC)cc1OC1CCN(C)C1 (stereo not given) | < 50 nM | < 50 nM | < 50 nM | < 50 nM | < 50 nM |
| COc1ccc(NC(=O)/C=C/Cl)cc1Nc1ncc(Cl)c(Nc2ccccc2P(C)(C)=O)n1 | < 50 nM | < 50 nM | < 50 nM | < 50 nM | < 50 nM |
| C=CC(=O)Nc1cc(Nc2ncc(Cl)c(Nc3ccccc3S(=O)(=O)C(C)C)n2)c(OC)cc1C#CCN(C)C | < 50 nM | < 50 nM | < 50 nM | < 50 nM | < 50 nM |
| COCCC#CC(=O)Nc1cc(Nc2ncc(Cl)c(Nc3ccccc3P(C)(C)=O)n2)c(OC)cc1N1CCOCC1 | < 50 nM | < 50 nM | < 50 nM | < 50 nM | < 50 nM |
| COc1cc(F)c(NC(=O)C#CC(C)(C)N2CCCC2)cc1Nc1ncc(Cl)c(Nc2ccccc2P(C)(C)=O)n1 | < 50 nM | < 50 nM | < 50 nM | < 50 nM | < 50 nM |
| C=CC(=O)Nc1cc(Nc2ncc(Cl)c(Nc3ccccc3P(C)(C)=O)n2)c(OC)cc1N1CCC(N2CCCCC2)CC1 | < 50 nM | < 50 nM | < 50 nM | < 50 nM | < 50 nM |
| C=CC(=O)Nc1cc(Nc2ncc(Cl)c(Nc3ccccc3P(C)(C)=O)n2)c(OC)cc1N1CCC(N2CCOCC2)C1 (stereo not given) | < 50 nM | < 50 nM | < 50 nM | < 50 nM | < 50 nM |
| COc1ccc(NC(=O)CCl)cc1Nc1ncc(Cl)c(Nc2ccccc2P(C)(C)=O)n1 | < 50 nM | < 50 nM | < 50 nM | < 50 nM | < 50 nM |
| CCOC(=O)/C=C/C(=O)Nc1ccc(OC)c(Nc2ncc(Cl)c(Nc3ccccc3P(C)(C)=O)n2)c1 | < 50 nM | < 50 nM | < 50 nM | < 50 nM | < 50 nM |
| C=CC(=O)Nc1cc(Nc2ncc(Cl)c(Nc3ccccc3P(C)(C)=O)n2)c(OC)cc1OC1CCCN(CCOC)C1 (stereo not given) | < 50 nM | < 50 nM | < 50 nM | < 50 nM | < 50 nM |
| C=C(CN1CCCC1)C(=O)Nc1ccc(OC)c(Nc2ncc(Cl)c(Nc3ccccc3P(C)(C)=O)n2)c1 | < 50 nM | < 50 nM | < 50 nM | < 50 nM | < 50 nM |
| C=CC(=O)Nc1ccc(OC)c(Nc2ncc(Cl)c(Nc3ccc(OCCOC)cc3P(C)(C)=O)n2)c1 | 50 to 100 nM | < 50 nM | 50 to 100 nM | < 50 nM | < 50 nM |
| C=CC(=O)Nc1cc(Nc2ncc(Cl)c(Nc3ccccc3P(C)(C)=O)n2)c(OC)cc1OCc1ccncc1 | < 50 nM | < 50 nM | 101 to 250 nM | < 50 nM | < 50 nM |
| C=CC(=O)Nc1ccc(OC(F)(F)F)c(Nc2ncc(Cl)c(Nc3ccccc3P(C)(C)=O)n2)c1 | < 50 nM | < 50 nM | < 50 nM | < 50 nM | < 50 nM |
| C=C(C)C(=O)Nc1cc(Nc2ncc(Cl)c(Nc3ccccc3P(C)(C)=O)n2)c(OC)cc1N1CC[C@@H](N(C)C)C1 | 101 to 250 nM | < 50 nM | < 50 nM | < 50 nM | < 50 nM |
| C=CC(=O)Nc1cc(Nc2ncc(Cl)c(Nc3ccccc3P(C)(C)=O)n2)c(Cl)cc1C#CCN(C)C | < 50 nM | < 50 nM | < 50 nM | < 50 nM | < 50 nM |

| Structure (SMILES) | IC50 [1] | IC50 [2] | IC50 [3] | IC50 [4] | IC50 [5] |
| --- | --- | --- | --- | --- | --- |
| C=CC(=O)Nc1cc(Nc2ncc(Cl)c(Nc3ccccc3P(C)(C)=O)n2)c(OC)cc1N1CCC(N2CCCC2)C1 (stereo not given) | < 50 nM | < 50 nM | < 50 nM | < 50 nM | < 50 nM |
| C=CC(=O)Nc1cc(Nc2ncc(Cl)c(Nc3ccccc3P(C)(C)=O)n2)c(OC)cc1OCCN1CCOCC1 | < 50 nM | < 50 nM | 101 to 250 nM | < 50 nM | 50 to 100 nM |
| CC#CC(=O)Nc1cc(Nc2ncc(Cl)c(Nc3ccccc3P(C)(C)=O)n2)c(OC)cc1N1CCC(N(C)C)C1 (stereo not given) | < 50 nM | < 50 nM | 50 to 100 nM | < 50 nM | < 50 nM |
| C=CC(=O)Nc1cc(Nc2ncc(Cl)c(Nc3ccccc3P(C)(C)=O)n2)c(OC)cc1N1CCC(N2CCN(C)CC2)C1 (stereo not given) | < 50 nM | < 50 nM | 101 to 250 nM | < 50 nM | 50 to 100 nM |
| C=CC(=O)Nc1cc(Nc2ncc(Cl)c(Nc3ccccc3P(C)(C)=O)n2)c(OC)cc1OCCCN1CCOCC1 | 101 to 250 nM | < 50 nM | 101 to 250 nM | < 50 nM | 101 to 250 nM |
| C=C(CN1CCN(C)CC1)C(=O)Nc1ccc(OC)c(Nc2ncc(Cl)c(Nc3ccccc3P(C)(C)=O)n2)c1 | < 50 nM | < 50 nM | < 50 nM | < 50 nM | < 50 nM |
| C=CC(=O)Nc1ccc(OC)c(Nc2ncc(Cl)c(Nc3ccc(OC4CCOC4)cc3P(C)(C)=O)n2)c1 (stereo not given) | < 50 nM | < 50 nM | 50 to 100 nM | < 50 nM | < 50 nM |
| C=CC(=O)Nc1cc(Nc2ncc(Cl)c(Nc3ccccc3P(C)(C)=O)n2)c(CC)cc1C#CCN(C)C | < 50 nM | < 50 nM | < 50 nM | < 50 nM | < 50 nM |
| C=CC(=O)Nc1cc(Nc2ncc(Cl)c(Nc3ccccc3P(C)(C)=O)n2)c(OC)cc1OC1CCCN(C)C1 (stereo not given) | < 50 nM | < 50 nM | < 50 nM | < 50 nM | < 50 nM |
| C=CC(=O)Nc1ccc(OC)c(Nc2ncc(Cl)c(Nc3ccc(OCCN4CCCCC4)cc3P(C)(C)=O)n2)c1 | < 50 nM | < 50 nM | < 50 nM | < 50 nM | < 50 nM |
| COc1cc(N2CCCC2)c(NC(=O)C#CCCN2CCN(C)CC2)cc1Nc1ncc(Cl)c(Nc2ccccc2P(C)(C)=O)n1 | < 50 nM | < 50 nM | 101 to 250 nM | < 50 nM | 101 to 250 nM |
| C=CC(=O)Nc1cc(Nc2ncc(Cl)c(Nc3ccccc3P(C)(C)=O)n2)c(OC)cc1N1CC[C@H](N(C)C)C1 | < 50 nM | < 50 nM | < 50 nM | < 50 nM | < 50 nM |
| C=CC(=O)Nc1cc(Nc2ncc(Cl)c(Nc3ccccc3P(C)(C)=O)n2)c(OC)cc1N1CCC(N2CCC2)C1 (stereo not given) | < 50 nM | < 50 nM | < 50 nM | < 50 nM | < 50 nM |
| C=CC(=O)Nc1ccc(OC)c(Nc2ncc(Cl)c(Nc3ccc(OCCN(C)C)cc3P(C)(C)=O)n2)c1 | < 50 nM | < 50 nM | < 50 nM | < 50 nM | < 50 nM |
| C=CC(=O)Nc1cc(Nc2ncc(Cl)c(Nc3ccccc3P(C)(C)=O)n2)c(OC)cc1OCCN1CCCCC1 | < 50 nM | < 50 nM | < 50 nM | < 50 nM | < 50 nM |
| COc1ccc(NC(=O)C#CC(C)(C)N2CCCC2)cc1Nc1ncc(Cl)c(Nc2ccccc2P(C)(C)=O)n1 | < 50 nM | < 50 nM | < 50 nM | < 50 nM | < 50 nM |
| C=CC(=O)Nc1ccc(OC)c(Nc2ncc(OC)c(Nc3ccccc3P(C)(C)=O)n2)c1 | 50 to 100 nM | < 50 nM | 50 to 100 nM | < 50 nM | < 50 nM |
